This is an account of results in article PMC9231138, “Dihydrotanshinone I Enhances Cell Adhesion and Inhibits Cell Migration in Osteosarcoma U−2 OS Cells through CD44 and Chemokine Signaling” (Molecules, 2022).

Holding throughout (type): cell-based, human
The subject of one assay is MT-MMP-1. Put plainly: RT-PCR MT-MMP-1 mRNA in U−2 OS cells. As for the experimental part:
Total RNA within cells was extracted by the RNAeasy™ Animal Long RNA Isolation Kit with Spin Column (Shanghai, Beyotime); the concentrations and OD260/OD280 and OD230/OD260 values were measured by NanoDrop. Five micrograms of RNA was used for reverse transcription; each sample was diluted to 16 μL, and 4 μL of synthesized premix solution (5×) was added, then the mixtures were placed in a 42 °C water bath for 10 min, then an 80 °C water bath for 10 min to deactivate reverse transcriptase. After reverse transcription, each sample was diluted to 140 μL. PCR amplification was carried out by the ABI700 real-time PCR system, and the amplification reaction was detected with a SYBR probe. After PCR, actin and GAPDH were used as internal references, and the relative standard curve method (2^−ΔΔcT) determined the relative expression of mRNA.

For a further assay, the system named is phospho−FOXO1. Put plainly: Western blot phospho−FOXO1. As for the experimental part: Figure 3 DS−1 inhibited the expression of transcription factor FOXO1 in U−2 OS cells. (A) U−2 OS cells were treated with DS−1 at 0, 3.125, 6.25, and 12.5 μM, and the changes in FOXO1 were analyzed by immunofluorescent staining, followed by confocal microscopy imaging. (B) U−2OS cells were treated with DS−1 at 0, 3.125, 6.25, and 12.5 μM, and FOXO1 and pFOXO1 were analyzed by Western blot; the changes were presented in histograms (C,D). (E) U−2 OS cells were treated with DS−1 at 6.25 μM for 0, 12, 24, and 48 h, then FOXO1 was analyzed by Western blot, and the changes are presented in the histogram (F). (G) The pFOXO1/FOXO1 value is shown in the histogram. […]
Sample preparation: U−2 OS cells seeded in 10 cm Petri dishes were collected and washed with ice-cold PBS and RIPA lysis buffer with PMAF; phosphatase inhibitor was added, and the tubes were placed on ice for 30 min and vortexed for 30 s at intervals of 10 min. […] The protein samples were placed on ice, and the concentration of each protein sample was measured by the BCA kit (Thermo). […]
(§1) Antibody staining: We blocked the membrane for 1 h at room temperature using 5% blocking solution, then incubated the membrane with appropriate dilutions of the primary antibody in the blocking solution overnight at 4 °C. […] Images were acquired using darkroom development techniques for chemiluminescence and analyzed by Image J.
Background: Immunoblotting shows a protein as a band on a membrane.

The test system of assay [1] is U−2 OS cells. The assay is described as follows: RNA-seq differential gene expression. Conditions: DS−1 6.25 µM, 24 h. Here is the method:
Sample preparation: U−2 OS cells were seeded in a 10 cm culture dish, and we cultured them to the logarithmic growth phase, suctioned the previous medium, and added new medium with DS−1 at 0 and 6.25 μM; each group was repeated two times. After 24 h of culture, the dish was washed with PBS reagent 3 times. One milliliter of TRIzol reagent was added to every dish for cell lysate and then collected in centrifuge tubes.
Transcriptome sequencing and analysis were carried out by Novogene Bioinformatics Technology Co., Ltd. (Beijing, China).
Raw data in the fastq format were firstly processed through in-house Perl scripts. In this step, clean data were obtained by removing reads containing adapter or containing ploy-N and low-quality reads from raw data. […]
Reference genome and gene model annotation files were downloaded from the genome website directly. The index of the reference genome was built using Hisat2 v2.0.5 (https://github.com/DaehwanKimLab/hisat2, accessed on 4 May 2022), and paired-end clean reads were aligned to the reference genome using Hisat2 v2.0.5. FeatureCounts v1.5.0-p3 (https://github.com/byee4/featureCounts, accessed on 4 May 2022) was used to count the reads numbers mapped to each gene. Then the Fragments PerKilobase of transcript sequence per Millions […] (FPKMs) of each gene were calculated based on the length of the gene and reads’ count mapped to this gene. […]

A further assay relates to CD44. Put plainly: Western blot of 80 kDa and 70 kDa CD44. As to conditions: DS−1 2.5, 5.0, and 7.5 µM for 24 h. As for the experimental part: Sample preparation: U−2 OS cells seeded in 10 cm Petri dishes were collected and washed with ice-cold PBS and RIPA lysis buffer with PMAF; phosphatase inhibitor was added, and the tubes were placed on ice for 30 min and vortexed for 30 s at intervals of 10 min. The samples were centrifuged at 12,000 g at 4 °C for 15 min, and the supernatants were collected in new centrifuge tubes. The protein samples were placed on ice, and the concentration of each protein sample was measured by the BCA kit (Thermo). The protein concentration was adjusted to the same by milli Q ultrapure water.
Loading and running the gel: Equal amounts of protein were loaded into the wells of the 10% SDS-PAGE gel, along with molecular weight markers, and 15 μg of total protein from the cell lysate was loaded. We then ran the gel for 45 min at 200 V.
Transferring the protein: We prepared the transfer stack as follows: negative plate, sponge, filter paper, gel, PVDF membrane, filter paper, sponge, and positive plate. The transfer was for 90 min at 200 mA.
as §1

For assay [2], the system named is U−2 OS cells. The assay is described as follows: Cell adhesion: trypsin digestion time, U−2 OS cells. As to conditions: DS−1 7.5 μM for 24 h, trypsin at 25 °C; control within 120 s. Here is the method: We wondered if there were other pathways affecting cell migration besides EMT signals.
Figure 7 DS−1 enhanced U−2 OS cells’ adhesion. (A) The morphological changes of U−2 OS cells treated with/without DS−1. Cells were treated with 0 and 7.5 μM DS−1 for 24 h, washed with PBS, and digested with trypsin at 25 °C under a microscope, and photos were taken every 30 s. The percentages of digested cells are recorded in (B). (C) Heatmap of genes related to the adherens’ junction in the control group and DS−1 group. (D) U−2 OS cells were treated with 0 and 7.5 μM DS−1 for 24 h, and the expression of CD44 was observed by immunofluorescence. (E,F) CD44 and GAPDH were analyzed by Western blot and calculated by Image J. (G) The relative expression of 4 kinds of MT-MMPs was analyzed by the transcriptome, as shown in the heatmap. (H) After being treated with DS−1, the relative expression of MT-MMP-1 was verified by RT-PCR. Values are the average of three independent experiments, * p < 0.05, ** p < 0.01, *** p < 0.005.

Consider `Cc1cccc2c3c(ccc12)C1=C(C(=O)C3=O)[C@@H](C)CO1` [DS−1, 15,16-Dihydrotanshinone I], for which the “MT-MMP-1 mRNA expression, fold” value with MT-MMP-1 (DS−1 2.5 µM) worked out at 0.92 ± 0.14 fold. The “MT-MMP-1 mRNA expression, fold” value in the assay on MT-MMP-1 (DS−1 5.0 µM) worked out at 0.72 ± 0.03 fold. Also, the “MT-MMP-1 mRNA expression, fold” value in the assay on MT-MMP-1 (DS−1 7.5 µM) is 0.07 ± 0.13 fold. For the same compound, the “phosphorylation of FOXO1 (pFOXO1/FOXO1 value)” value in the assay with phospho−FOXO1 (with increasing concentration of DS−1, Image J) is reported as “increased”. Moreover, the “phospho−FOXO1” value in the assay on phospho−FOXO1 (with the concentration of DS−1 (3.125, 6.25, 12.5 μM) and the time of treatment (6.25 μM, 12, 24, 48 h)) is reported as “reduced”. For the same compound, in the assay with U−2 OS cells [1], the “number of genes downregulated (of 23,517 detected)” value turned out to be 4643 genes and the “number of genes upregulated (of 23,517 detected)” value stood at 4104 genes. Moreover, in the assay on CD44, the “70 kDa CD44 protein” value was “decreased” and the “80 kDa CD44 protein” value is reported as “significantly increased”. Moreover, in the assay with U−2 OS cells [2], the “time of trypsin digestion” value is no more than 210 s.
